Experiments:
[1] = system: gintonin-induced CaCC currents; experiment: Effects of PLC inhibitor, IP3 receptor antagonist or Ca2+ chelator on crude gintonin-mediated CaCC activation in Xenopus oocytes; assay type: cell-based, Xenopus laevis; details: for crude gintonin-induced CaCC currents, % of the control: in presence of the PLC inhibitor or inactive analog
Description: Two-electrode voltage-clamp recordings were obtained from individual oocytes placed in a small Plexiglas net chamber (0.5 ml). Electrophysiological experiments were performed at room temperature using microelectrodes filled with 3 M KCl (resistance of 0.2-0.7 MΩ) and an Oocyte Clamp amplifier (OC-725C; Warner Instrument, Hamden, Conn.), followed by recording CaCC at −80 mV holding potential.
For this, the effect of the IP3 receptor antagonist, membrane permeable 2-aminoethxydiphenyl borate (2-APB), on gintonin-induced CaCC activation was examined.

[2] = system: gintonin-mediated elevation of [Ca^2+]i in mouse EAT cells; experiment: Effects of active or inactive PLC inhibitors on gintonin-mediated [Ca2+]i elevation in mouse EAT cells; assay type: cell-based; details: for effect on the action of gintonin on [Ca^2+]i: mouse EAT cells, irrespective of the presence of extracellular Ca^2+; for effect on gintonin (100 ng/mL)-mediated elevation of [Ca^2+]i: pretreatment 10 μM, Ca^2+ buffer (1.5 mM Ca^2+) and Ca^2+ free buffer (0.2 mM EGTA), n=4-5/group
Description: Data are represented as means ±SEM (n=4-5/group).
[Ca^2+]i was estimated in fura 2-loaded cells in suspension using an RF-5300PC intracellular ion measurement system (Shimadzu Corporation, Japan). The fura 2-AM loaded cells were diluted with an experimental medium to a final density of 2˜4×10^6 cells/mL and transferred to polystyrene cuvettes (Elkay Ultra-VU). The cells were stirred using Teflon-coated magnets, and the cuvette housing was thermostatically controlled at 37° C. The excitation wavelengths were alternated between 340 and 380 nm under computer control. Emission was detected at 510 nm. Excitation and emission slit widths were 5 nm. Background correction was performed as described by Jorgensen et al. Digitonin and EGTA were used as concentration adjustment reagents to make a condition in which fura 2 completely combines with and disassociates from Ca^2+.

Compound	effect on gintonin-mediated CaCC activation ([1]; 10 μM final)	crude gintonin-induced CaCC currents, % of the control [1]	effect on the action of gintonin on [Ca^2+]i [2]	effect on gintonin (100 ng/mL)-mediated elevation of [Ca^2+]i [2]	inward CaCC currents induced by gintonin after addition of 2-APB ([1]; P<0.01 vs control current)	effect on gintonin-induced inward CaCC currents ([1]; addition of 2-APB)
CC(=O)OCOC(=O)CN(CC(=O)OCOC(C)=O)c1ccccc1OCCOc1ccccc1N(CC(=O)OCOC(C)=O)CC(=O)OCOC(C)=O [BAPTA-AM, 1,2-bis-(2-aminophenoxy)ethane-N,N,N′,N′-tetraacetic acid acetoxymethyl ester]	almost extinguished					
COc1ccc2c(c1)CC[C@@H]1[C@@H]2CC[C@]2(C)[C@@H](NCCCCCCN3C(=O)C=CC3=O)CC[C@@H]12 [U-73122]		3.9±0.3%	almost abrogate	blocked		
COc1ccc2c(c1)CC[C@@H]1[C@@H]2CC[C@]2(C)[C@@H](NCCCCCCN3C(=O)CCC3=O)CC[C@@H]12 [U-73343]		97.2±0.2%	not	not		
NCCOB(c1ccccc1)c1ccccc1 [2-APB, 2-aminoethxydiphenyl borate]					0.03±0.01 μA	almost completely abrogated

— patent publication US8563052B2, “Method for preparing gintonin, which is a novel glycolipoproetin from panax ginseng, and gintonin, which is a novel glycolipoprotein, prepared by the method” (Konkuk University Industrial Cooperation Corp., priority 2009, dated 2013)
